Tested on: MV-4-11 cells
Assay: Gene expression microarray analysis (Affymetrix PrimeView) and GSEA
Format: cell-based, human
Parameters: RFU PODN (11730768_x_at) / Fold change /veh PODN (11730768_x_at) / RFU LINC00158 (11744669_a_at) / Fold change /veh LINC00158 (11744669_a_at) / RFU DUSP10 (11751237_a_at) / Fold change /veh DUSP10 (11751237_a_at) / RFU ID3 (11757404_x_at) / Fold change /veh ID3 (11757404_x_at) / RFU PLEKHG5 (11737974_s_at) / Fold change /veh PLEKHG5 (11737974_s_at) / RFU LRRC4B (11730491_at) / Fold change /veh LRRC4B (11730491_at) / RFU GIMAP4 (11747438_a_at) / Fold change /veh GIMAP4 (11747438_a_at) / RFU KRT8 (11758183_x_at) / Fold change /veh KRT8 (11758183_x_at) / RFU CNN1 (11734310_a_at) / Fold change /veh CNN1 (11734310_a_at) / RFU VPS37D (11726825_at) / Fold change /veh VPS37D (11726825_at) / RFU C10orf10 (11716522_x_at) / Fold change /veh C10orf10 (11716522_x_at) / RFU KIR2DL2 /// KIR2DL4 /// KIR2DL5A /// KIR2DL5B /// KIR2DS1 /// KIR2DS2 /// KIR2DS3 /// KIR2DS4 /// KIR3DL3 /// KIR3DL3 /// KIR3DS1 (11738374_at) / Fold change /veh KIR2DL2 /// KIR2DL4 /// KIR2DL5A /// KIR2DL5B /// KIR2DS1 /// KIR2DS2 /// KIR2DS3 /// KIR2DS4 /// KIR3DL3 /// KIR3DL3 /// KIR3DS1 (11738374_at) / RFU C1QL1 (11718748_at) / Fold change /veh C1QL1 (11718748_at) / RFU TMPRSS4 (11747572_a_at) / Fold change /veh TMPRSS4 (11747572_a_at) / RFU HAMP (11756126_x_at) / Fold change /veh HAMP (11756126_x_at) / RFU RNFT2 (11725882_a_at) / Fold change /veh RNFT2 (11725882_a_at) / RFU NR4A2 (11747474_a_at) / Fold change /veh NR4A2 (11747474_a_at) / RFU ABCC12 (11746883_a_at) / Fold change /veh ABCC12 (11746883_a_at) / RFU TMEM136 (11760407_x_at) / Fold change /veh TMEM136 (11760407_x_at) / RFU CLDN22 /// WWC2 (11732394_at) / Fold change /veh CLDN22 /// WWC2 (11732394_at) / RFU HLA-DPB1 (11760878_x_at) / Fold change /veh HLA-DPB1 (11760878_x_at) / RFU SPINT1 (11716480_a_at) / Fold change /veh SPINT1 (11716480_a_at) / RFU GAP43 (11754022_s_at) / Fold change /veh GAP43 (11754022_s_at) / RFU A4GNT (11735810_at) / Fold change /veh A4GNT (11735810_at) / RFU PRB3 (11715151_x_at) / Fold change /veh PRB3 (11715151_x_at) / RFU TUBB4B (11761932_at) / Fold change /veh TUBB4B (11761932_at) / RFU CAPN14 (11732068_a_at) / Fold change /veh CAPN14 (11732068_a_at) / RFU TMCC2 (11721928_a_at) / Fold change /veh TMCC2 (11721928_a_at) / RFU IRGQ (11745062_a_at) / Fold change /veh IRGQ (11745062_a_at) / RFU FAM174B (11720279_a_at) / Fold change /veh FAM174B (11720279_a_at) / RFU TMPRSS4 (11748680_a_at) / Fold change /veh TMPRSS4 (11748680_a_at) / RFU FAM212B (11763350_a_at) / Fold change /veh FAM212B (11763350_a_at) / RFU PLEKHG5 (11743358_a_at) / Fold change /veh PLEKHG5 (11743358_a_at) / RFU ZSCAN30 (11745921_a_at) / Fold change /veh ZSCAN30 (11745921_a_at) / RFU CMKLR1 (11741424_a_at) / Fold change /veh CMKLR1 (11741424_a_at) / RFU LOC101060620 /// MAPK8IP1 (11723275_at) / Fold change /veh LOC101060620 /// MAPK8IP1 (11723275_at) / RFU SPTSSB (11747773_x_at) / Fold change /veh SPTSSB (11747773_x_at) / RFU PRSS12 (11739890_at) / Fold change /veh PRSS12 (11739890_at) / RFU BIN1 (11741810_x_at) / Fold change /veh BIN1 (11741810_x_at) / RFU WNT11 (11732464_a_at) / Fold change /veh WNT11 (11732464_a_at) / RFU C10orf10 (11716521_a_at) / Fold change /veh C10orf10 (11716521_a_at) / RFU C5orf56 (11738089_at) / Fold change /veh C5orf56 (11738089_at) / RFU CYB561 (11721691_x_at) / Fold change /veh CYB561 (11721691_x_at) / RFU ANKRD19P (11752326_a_at) / Fold change /veh ANKRD19P (11752326_a_at) / RFU OR2T12 /// OR2T33 /// OR2T8 (11738714_s_at) / Fold change /veh OR2T12 /// OR2T33 /// OR2T8 (11738714_s_at) / RFU VCAN (11748164_a_at) / Fold change /veh VCAN (11748164_a_at) / RFU JSRP1 (11732532_at) / Fold change /veh JSRP1 (11732532_at) / RFU KRTAP10-11 (11738290_x_at) / Fold change /veh KRTAP10-11 (11738290_x_at) / RFU MYO3A (11730013_a_at) / Fold change /veh MYO3A (11730013_a_at) / RFU EBF3 (11725865_a_at) / Fold change /veh EBF3 (11725865_a_at) / RFU CAMK2N1 (11719241_x_at) / Fold change /veh CAMK2N1 (11719241_x_at) / RFU C5orf56 (11738088_a_at) / Fold change /veh C5orf56 (11738088_a_at) / RFU OLFML3 (11715873_a_at) / Fold change /veh OLFML3 (11715873_a_at) / RFU LOC100653217 /// NTM (11731650_a_at) / Fold change /veh LOC100653217 /// NTM (11731650_a_at) / RFU MAPK11 (11762145_a_at) / Fold change /veh MAPK11 (11762145_a_at) / RFU FIZ1 (11724087_x_at) / Fold change /veh FIZ1 (11724087_x_at) / RFU OASL (11726364_x_at) / Fold change /veh OASL (11726364_x_at) / RFU SOX15 (11748057_x_at) / Fold change /veh SOX15 (11748057_x_at) / RFU CD79A (11719716_a_at) / Fold change /veh CD79A (11719716_a_at) / RFU HIST1H1D (11736915_at) / Fold change /veh HIST1H1D (11736915_at) / RFU CASKIN2 (11723855_a_at) / Fold change /veh CASKIN2 (11723855_a_at) / RFU LOC730098 (11760151_x_at) / Fold change /veh LOC730098 (11760151_x_at) / RFU OR4N2 (11742367_at) / Fold change /veh OR4N2 (11742367_at) / RFU PRRT2 (11749266_a_at) / Fold change /veh PRRT2 (11749266_a_at) / RFU SNX32 (11753110_a_at) / Fold change /veh SNX32 (11753110_a_at) / RFU CDHR5 (11726645_a_at) / Fold change /veh CDHR5 (11726645_a_at) / RFU RCAN1 (11760418_a_at) / Fold change /veh RCAN1 (11760418_a_at) / RFU FAM167A (11723789_a_at) / Fold change /veh FAM167A (11723789_a_at) / RFU FAM26E (11764081_at) / Fold change /veh FAM26E (11764081_at) / RFU ISYNA1 (11749810_s_at) / Fold change /veh ISYNA1 (11749810_s_at) / RFU ACY1 (11761880_at) / Fold change /veh ACY1 (11761880_at) / RFU 11764098_at / Fold change /veh 11764098_at / RFU SAMD14 (11745864_x_at) / Fold change /veh SAMD14 (11745864_x_at) / RFU NPB (11741838_a_at) / Fold change /veh NPB (11741838_a_at) / RFU TMPRSS6 (11731388_a_at) / Fold change /veh TMPRSS6 (11731388_a_at) / RFU KRTAP10-2 (11738614_at) / Fold change /veh KRTAP10-2 (11738614_at) / RFU ARHGAP8 /// PRR5-ARHGAP8 (11727945_x_at) / Fold change /veh ARHGAP8 /// PRR5-ARHGAP8 (11727945_x_at) / RFU KRTAP5-7 /// NADSYN1 (11734609_at) / Fold change /veh KRTAP5-7 /// NADSYN1 (11734609_at) / RFU RASL12 (11751679_a_at) / Fold change /veh RASL12 (11751679_a_at) / RFU CDKN2B (11736163_a_at) / Fold change /veh CDKN2B (11736163_a_at) / RFU PRF1 (11729649_at) / Fold change /veh PRF1 (11729649_at) / RFU, ZNF638 /// ZNF638-IT1 / Fold change vs veh, ZNF638 /// ZNF638-IT1 / RFU, PANK3 / Fold change vs veh, PANK3 / RFU, SH3YL1 / Fold change vs veh, SH3YL1 / RFU, ZEB2 / Fold change vs veh, ZEB2 / RFU, NRIP1 / Fold change vs veh, NRIP1 / RFU, PTTG1IP / Fold change vs veh, PTTG1IP / RFU, CAPN2 / Fold change vs veh, CAPN2 / RFU, MED14 / Fold change vs veh, MED14 / RFU, SNORA58 / Fold change vs veh, SNORA58 / RFU, C1orf63 / Fold change vs veh, C1orf63 / RFU, LRRFIP1 / Fold change vs veh, LRRFIP1 / RFU, NDUFAF7 / Fold change vs veh, NDUFAF7 / RFU, SLC12A2 / Fold change vs veh, SLC12A2 / RFU, IBTK / Fold change vs veh, IBTK / RFU, ESF1 / Fold change vs veh, ESF1 / Fold change vs veh, TMEM50B / RFU, TAOK1 / Fold change vs veh, TAOK1 / RFU, ACBD3 / Fold change vs veh, ACBD3 / RFU, TMA16 / Fold change vs veh, TMA16 / RFU, RWDD3 / Fold change vs veh, RWDD3 / RFU, BCAT1 / Fold change vs veh, BCAT1 / RFU, EDEM3 / Fold change vs veh, EDEM3 / RFU, TMEM33 / Fold change vs veh, TMEM33 / RFU, WDR75 / Fold change vs veh, WDR75 / RFU, AHCTF1 / Fold change vs veh, AHCTF1 / RFU, TFRC / Fold change vs veh, TFRC / RFU, ZDHHC17 / Fold change vs veh, ZDHHC17 / RFU, NOM1 / Fold change vs veh, NOM1 / RFU, ARL8B / Fold change vs veh, ARL8B / RFU, ZBTB11 / Fold change vs veh, ZBTB11 / RFU, TAMM41 / Fold change vs veh, TAMM41 / RFU, KIAA1704 /// LOC100996395 / Fold change vs veh, KIAA1704 /// LOC100996395 / RFU, ING1 / Fold change vs veh, ING1 / RFU, TRMT61B / Fold change vs veh, TRMT61B / RFU, FUBP3 / Fold change vs veh, FUBP3 / RFU, TP53 / Fold change vs veh, TP53 / RFU, TNKS2 / Fold change vs veh, TNKS2 / RFU, ZFP14 / Fold change vs veh, ZFP14 / RFU, ACTR2 / Fold change vs veh, ACTR2 / RFU, PPP3R1 / Fold change vs veh, PPP3R1 / RFU, PIK3R1 / Fold change vs veh, PIK3R1 / RFU, HNRNPA1 / Fold change vs veh, HNRNPA1 / RFU, RNF170 / Fold change vs veh, RNF170 / RFU, ZNF28 / Fold change vs veh, ZNF28 / RFU, RNGTT / Fold change vs veh, RNGTT / RFU, OGT / Fold change vs veh, OGT / RFU, BRD1 / Fold change vs veh, BRD1 / RFU, MARS / Fold change vs veh, MARS / RFU, ZNF655 / Fold change vs veh, ZNF655 / RFU, FAHD1 / Fold change vs veh, FAHD1 / RFU, BDP1 / Fold change vs veh, BDP1 / RFU, LRRCC1 / Fold change vs veh, LRRCC1 / RFU, ARID1A / Fold change vs veh, ARID1A / RFU, ZNF146 / Fold change vs veh, ZNF146 / RFU, ZNF330 / Fold change vs veh, ZNF330 / RFU, GPN3 / Fold change vs veh, GPN3 / RFU, C9orf123 / Fold change vs veh, C9orf123 / RFU, N4BP2L2 / Fold change vs veh, N4BP2L2 / RFU, ARFIP1 / Fold change vs veh, ARFIP1 / RFU, FAM179B / Fold change vs veh, FAM179B / RFU, BCL10 / Fold change vs veh, BCL10 / RFU, UHRF1BP1L / Fold change vs veh, UHRF1BP1L / RFU, BET1 / Fold change vs veh, BET1 / RFU, CNOT2 / Fold change vs veh, CNOT2 / RFU, ZNF268 / Fold change vs veh, ZNF268 / Fold change vs veh, ZNF507 / RFU, DGCR2 / Fold change vs veh, DGCR2 / RFU, WDSUB1 / Fold change vs veh, WDSUB1 / Fold change vs veh, HSP90B1 /// MIR3652 / RFU, ADSS / Fold change vs veh, ADSS / RFU, GK / Fold change vs veh, GK / RFU, ZNF148 / Fold change vs veh, ZNF148 / RFU, TAF9 / Fold change vs veh, TAF9 / RFU, SLC1A5 / Fold change vs veh, SLC1A5 / RFU, SLMO2 / Fold change vs veh, SLMO2 / RFU, ABCC4 / Fold change vs veh, ABCC4 / RFU, LOC101060439 /// RAP1B / Fold change vs veh, LOC101060439 /// RAP1B / RFU, RFX7 / Fold change vs veh, RFX7 / RFU, GTPBP10 / Fold change vs veh, GTPBP10 / RFU, CNEP1R1 / Fold change vs veh, CNEP1R1 / RFU, BIVM-ERCC5 /// ERCC5 / Fold change vs veh, BIVM-ERCC5 /// ERCC5 / RFU, ILF3 / Fold change vs veh, ILF3 / RFU 11762660_at / Fold change /veh 11762660_at / RFU VCAN (11757783_s_at) / Fold change /veh VCAN (11757783_s_at) / RFU DDX43 (11728927_at) / Fold change /veh DDX43 (11728927_at) / RFU KRT8 (11758188_x_at) / Fold change /veh KRT8 (11758188_x_at) / RFU NKD1 (11759106_at) / Fold change /veh NKD1 (11759106_at) / RFU SRD5A1 (11742802_a_at) / Fold change /veh SRD5A1 (11742802_a_at) / RFU TPSAB1 /// TPSB2 (11721975_s_at) / Fold change /veh TPSAB1 /// TPSB2 (11721975_s_at) / RFU GSTM3 (11746129_a_at) / Fold change /veh GSTM3 (11746129_a_at) / RFU IL23R (11737362_x_at) / Fold change /veh IL23R (11737362_x_at) / RFU TMEM51 (11727254_a_at) / Fold change /veh TMEM51 (11727254_a_at) / RFU PIWIL2 (11732686_x_at) / Fold change /veh PIWIL2 (11732686_x_at) / RFU ORM1 (11744905_x_at) / Fold change /veh ORM1 (11744905_x_at) / RFU CCDC152 (11743942_at) / Fold change /veh CCDC152 (11743942_at) / RFU ECM1 (11717891_a_at) / Fold change /veh ECM1 (11717891_a_at) / RFU IL23R (11748794_a_at) / Fold change /veh IL23R (11748794_a_at) / RFU TNFAIP8L3 (11732012_x_at) / Fold change /veh TNFAIP8L3 (11732012_x_at) / RFU MBOAT4 (11741988_at) / Fold change /veh MBOAT4 (11741988_at) / RFU 11764193_at / Fold change /veh 11764193_at / RFU TMEM53 (11763286_at) / Fold change /veh TMEM53 (11763286_at) / RFU MAGEB2 (11727129_at) / Fold change /veh MAGEB2 (11727129_at) / RFU TMEM200A (11744735_a_at) / Fold change /veh TMEM200A (11744735_a_at) / RFU CCDC152 (11751479_a_at) / Fold change /veh CCDC152 (11751479_a_at) / RFU FAM211A (11726209_a_at) / Fold change /veh FAM211A (11726209_a_at) / RFU RGS16 (11746705_a_at) / Fold change /veh RGS16 (11746705_a_at) / RFU VCAN (11755009_s_at) / Fold change /veh VCAN (11755009_s_at) / RFU RHOB (11743442_s_at) / Fold change /veh RHOB (11743442_s_at) / RFU RGS16 (11720943_a_at) / Fold change /veh RGS16 (11720943_a_at) / RFU RGS16 (11720944_at) / Fold change /veh RGS16 (11720944_at) / RFU, VPS4B / Fold change vs veh, VPS4B / RFU, CREB1 / Fold change vs veh, CREB1 / RFU, DNAJC13 / Fold change vs veh, DNAJC13 / RFU, GNAQ / Fold change vs veh, GNAQ / RFU, CDK5R1 / Fold change vs veh, CDK5R1 / RFU, ZRANB3 / Fold change vs veh, ZRANB3 / RFU, CUL4A / Fold change vs veh, CUL4A / RFU, CCNY / Fold change vs veh, CCNY / RFU, UFL1 / Fold change vs veh, UFL1 / RFU, COG3 / Fold change vs veh, COG3 / RFU, DIAPH2 / Fold change vs veh, DIAPH2 / RFU, SKA2 / Fold change vs veh, SKA2 / RFU, AFF3 / Fold change vs veh, AFF3 / RFU, LMF1 / Fold change vs veh, LMF1 / RFU, IPO11 / Fold change vs veh, IPO11 / RFU, DFFB / Fold change vs veh, DFFB / RFU, FOXP1 / Fold change vs veh, FOXP1 / RFU, CARD8 / Fold change vs veh, CARD8 / RFU, STRN3 / Fold change vs veh, STRN3 / RFU, ADK / Fold change vs veh, ADK / RFU, RASSF2 / Fold change vs veh, RASSF2 / RFU, WIPF1 / Fold change vs veh, WIPF1 / RFU, LARP1B / Fold change vs veh, LARP1B / RFU, RASA1 / Fold change vs veh, RASA1 / RFU, RB1 / Fold change vs veh, RB1 / RFU, PPFIA1 / Fold change vs veh, PPFIA1 / RFU, MAT2A / Fold change vs veh, MAT2A / RFU, CCT5 / Fold change vs veh, CCT5 / RFU, WDR92 / Fold change vs veh, WDR92 / RFU, CUX1 / Fold change vs veh, CUX1 / RFU, TTC7A / Fold change vs veh, TTC7A / RFU, TMEM135 / Fold change vs veh, TMEM135 / RFU, DEPTOR / Fold change vs veh, DEPTOR / RFU, CPM / Fold change vs veh, CPM / RFU, DNAJB6 / Fold change vs veh, DNAJB6 / RFU, CACNA2D3 / Fold change vs veh, CACNA2D3 / RFU, DTX4 / Fold change vs veh, DTX4 / RFU, TFCP2 / Fold change vs veh, TFCP2 / RFU, GMCL1 /// GMCL1P1 / Fold change vs veh, GMCL1 /// GMCL1P1 / RFU, AEBP2 / Fold change vs veh, AEBP2 / RFU, SNHG1 /// SNORD22 /// SNORD25 /// SNORD26 /// SNORD27 /// SNORD28 /// SNORD29 /// SNORD31 / Fold change vs veh, SNHG1 /// SNORD22 /// SNORD25 /// SNORD26 /// SNORD27 /// SNORD28 /// SNORD29 /// SNORD31 / Fold change (Aza/veh), C12orf56 (ProbeSet 11735607_a_at) / Fold change (ACY-1035/veh), C12orf56 (ProbeSet 11735607_a_at) / Fold change (Aza/veh), FGFR1OP (ProbeSet 11751329_s_at) / Fold change (ACY-1035/veh), FGFR1OP (ProbeSet 11751329_s_at) / Fold change (Aza/veh), VPS36 (ProbeSet 11739960_a_at) / Fold change (ACY-1035/veh), VPS36 (ProbeSet 11739960_a_at) / RFU SYPL1 (11715823_x_at) / Fold change /veh SYPL1 (11715823_x_at) / RFU IGFBP7 (11715501_s_at) / Fold change /veh IGFBP7 (11715501_s_at) / RFU REEP3 (11722064_at) / Fold change /veh REEP3 (11722064_at) / RFU IGLL1 (11728026_x_at) / Fold change /veh IGLL1 (11728026_x_at): dose or concentration left out as unconfirmed
Settings: MV-4-11 cells, 48 hours

## Nc1ccc(-c2cccs2)cc1NC(=O)c1ccc2c(c1)cc(C1CC1)n2CCN1CCOCC1 [ACY-1035]
  RFU IGFBP7 (11715501_s_at): 134.15 RFU
